Here are results for 1 compound from patent publication US8680094B2, “1, 4-benzoxazine compounds and derivatives thereof as therapeutic drugs for the treatment of neurodegenerative conditions” (Board of Regents, The University of Texas System, priority 2008, dated 2014).

Several values for one entry are separate records, joined by “and”; a condition that tells them apart may be missing. Equal values may be shown once.

For assay [1], the system named is flies expressing human APP695. In words: APP695-induced toxicity in Drosophila (survival of flies). The assay is classed as in vivo. How it is done:
Survival of flies expressing human APP695 compared to controls. […] Bars indicate mean±SEM. FIG. 8 is an image showing HSB-13 protects HT-22 cells against HCA-induced toxicity. HT-22 cells were treated with no additives (Control), 2 mM HCA, or 2 mM HCA+25 μM HSB-13. The appearance of the cultures at 24 hours after treatment is shown.
Expression of human APP695 was induced ubiquitously by crossing transgenic flies carrying a UAS-APP695 construct (Fossgreen et al., 1998) with flies containing an actin-GAL4 promoter using the UAS/GAL4 system (Brand and Perrimon, 1993). Flies were raised at 25° C. in the dark on 10% yeast paste containing different concentrations of HSB-13 (0, 2.5, 5, and 50 μM). The percentage of surviving APP695-expressing progeny was determined by comparing them to control progeny carrying no promoter construct obtained in the same cross and therefore raised under identical conditions as described previously (Greeve et al., 2004).

Assay [2] relates to primary cortical neurons. In words: Aβ-induced death of primary cortical neurons. The assay is classed as cell-based, rat. The note with it: 5 uM aged Aβ25-35; viability 24 hours later. Here is the method: Primary cultures of cortical neurons were cultured from embryonic day 18 rats. The cultures were treated 1-2 days later with 5 uM of aged Aβ peptide (Aβ25-35; purchased from Sigma-Aldrich). Neuronal viability was assayed 24 hours later.

Assay [3] relates to primary cortical neurons. In words: HCA-induced neurotoxicity in primary cortical neurons. The assay is classed as cell-based, rat.

With `Nc1ccc2c(c1)NC(=O)/C(=C/c1cc(Br)c(O)c(Br)c1)O2` [HSB-13, (Z)-6-amino-2-(3,′5′-dibromo-4′-hydrozybenzylidene)-2H-benzo[b][1,4]oxazin-3(4H)-one], the “survival rate compared to untreated flies” value in assay [1] (food containing HSB-13, all p-values<0.05) is listed as “approximately 10 times”. The “survival rate of APP-expressing flies compared to equally treated control flies” value in assay [1] (raised on food containing HSB-13, printed as 65% at 50 μM to 44% at 50 μM, untreated about 5%) is 65% and 44%. Further, in the assay with primary cortical neurons [2], the “protection against Aβ toxicity” value was “protects”. Also, the “protection against HCA-induced neurotoxicity” value in the assay with primary cortical neurons [3] is “protects”.
